# Experimental data as given in patent US9283235B2, “Intermittent lowering of cortisol as treatment of clinical conditions associated with abnormal concentrations of cortisol in animals” (Stegram Pharmaceuticals Limited, priority 2001, dated 2016).
# Several values for one entry are separate records, joined by “and”; a condition that tells them apart may be missing. Identical values can stand only once. Entries after “also recorded” stand apart in the source; their conditions may differ.
# Legend:
# [1] = test system: hypothalamic-pituitary-adrenal axis; assay: Combined dexamethasone suppression / TRH stimulation test, serum cortisol in horses; assay type: in vivo, horse
# Procedure: (§1) The ability of intermittent administration of Trilostane to block adrenal steroidogenesis was assessed in twenty horses (mean age 21, SD 5.7 years) with equine Cushing's disease. The combined dexamethasone suppression thyrotropin releasing hormone (TRH) stimulation test (17 horses) or TRH stimulation test (3 horses) was used as a standard test of function of the hypothalamic-pituitary-adrenal axis. Serum samples for cortisol analysis were collected via indwelling catheter at 4-hourly intervals over 24 hours on each of the test periods. These were before treatment then at 210 minutes (30 min after I mg i.v. TRH) and 22 hours after […] dexamethasone i.m. Affected horses were treated with 0.4 to 1 mg/kg, (mean 0.5 mg/kg) trilostane administered once daily in feed for a period of 30 days. After 30 days endocrine testing was repeated. Serum cortisol before and after treatment was compared by paired t-test.
# This is similar to the post ACTH stimulation in the dogs. The adrenal gland is not responding to stimulation by pituitary hormone in the same way as before trilostane treatment.
# [2] = test system: serum cortisol; assay: Mean serum cortisol over 24 hours (4-hourly samples) in horses with Cushing's disease; assay type: in vivo, horse
# Procedure: as §1
# [3] = test system: dogs with hyperadrenocorticism (HAC); assay: Prospective study of trilostane in dogs with spontaneous hyperadrenocorticism (HAC): clinical signs and survival; assay type: in vivo, dog
# Procedure: Animals were entered into a prospective study and all animals required clinical and laboratory signs of hyperadrenocorticism as well as a final diagnosis of this disease. Data collected from each case included a clinical-historicy and physical examination, full blood count (CBC), serum biochemical profile, urinalysis and abdominal ultrasound. An ACTH-stimulation test was performed in all dogs. […] Dogs that had been treated for HAC other medication needed to be off these drugs for at least 10 days. Dogs with renal or hepatic insufficiency and dogs that received steroids were not included in the study.
# Dogs with pituitary dependant hyperadrenocorticism or adrenal tumour which was unresectable or the owners were unwilling to have surgery performed, respectively, were treated with trilostane. The initial dose for dogs[…] was 30 mg once daily, dogs between 5 and 15 kg received 60 mg once daily and dogs>15 kg received 120 mg once daily. Dosages were adjusted based on clinical signs, blood biochemical parameters and an ACTH stimulation test.
# (§2) Follow-up re-examinations took place after 10 days, 4 weeks, 3 mouths, 6 months and then every 6 months or within 4 weeks of adjusting the dosage. At these points, owners were carefully questioned about their perception of the dogs general well being, dissolution of clinical signs and potential side effects and a physical examination was performed. A full biochemical profile and an ACTH stimulation test were carried out. Further tests such as urinanalysis, urine culture, thoracic radiographs, etc. were done if deemed necessary. If the clinical sips of hyperadrenocorticism (polyuria/polydipsia, polyphagia, exercise intolerance, etc.) were still present and if the post-ACTH cortisol concentration remained above 220 nmol/l, trilostane was given twice daily at the same dosage.
# [4] = test system: serum cortisol; assay: Canine serum cortisol over 24 hours pre and post trilostane; assay type: in vivo, dog; conditions: for Canine serum cortisol, post: individual dogs; for Canine serum cortisol, post, Mean: mean of dogs
# Text: With this level of lowering there was relief of the symptoms of the Cushing's disease.
# [5] = Trilostane and ketotrilostane concentrations in dogs after a single daily dose; assay type: in vivo, dog
# Procedure: Trilostane concentrations in the plasma of 6 dogs: day 0, phase 1 (one 60 mg capsule per day), study no. GB009/01-001.
# Ketotrilostane concentrations in the plasma of 6 dogs: day 0, phase 1 (one 60 mg capsule per day), study no. GB009/01-001.
# The significance of this is that the metabolite, ketotrilostane, is not retained in the body for an extended period of time.
# [6] = test system: dogs with hyperadrenocorticism (HAC); assay: Tolerability and adverse events of trilostane in dogs with HAC; assay type: in vivo, dog
# Procedure: as §2
# Starting dose was between 1.8 and 20 mg/kg (mean: 6.0; SD 3.4 mg/kg). […] Two cross bred dogs with classical clinical signs and endocrine testing results of HAC were started on 6.5 and 7.5 mg/kg trilostane. […] One of the dogs also was hyperkalaernic and hyponatraemic (ratio:22.3). In both dogs no more trilostane was given thereafter and the dogs are free of clinical signs after 2.7 and 1.4 years. In the 9 dogs with adrenal tumours, which started on the same dosing protocol as the dogs with PDH, two had the dose halved, three stayed on the original dose while in 4 dogs the dose was increased up to 300% of the original dose.
# [7] = test system: advanced breast cancer; conditions: published studies (Williams et al 1993; Ingle et al 1990); cited from earlier work
# [8] = Table 2, individual horses, after trilostane
# [9] = Table 5, individual horses, after 30 days 0.4–1.0 mg/k
# [10] = mean of horses, after 30 days trilostane
# [11] = mean of all horses, once daily 0.4-1.0 mg/k for 30 days
smiles,measurement,setting,value
"CC12CCC3C(CC[C@@]45O[C@@H]4C(=O)C(C#N)CC35C)C1CC[C@@H]2O (stereo partly drawn) [Trilostane, 2α-cyano-4α,5α-epoxyandrostan-17β-ol-3-one]",Serum cortisol Post-Treatment Base,[1]; [8],160 and 236 and 116 and 254 and 149 and 127 and 112 and 136 and 65 and 202 and 81 and 100 and 209 and 189 and 121 and 288
same,Serum cortisol Post-Treatment Post Dex,[1]; [8],170 and 149 and 118 and 113 (2×) and 82 and 81 (2×) and 163 and 50 and 101 and 138 and 47 and 1 and 153
same,Serum cortisol Post-Treatment Post TRH,[1]; [8],114 and 316 and 167 and 193 and 93 and 79 and 139 and 158 and 170 and 88 and 150 and 117 and 100 (2×) and 138 and 224
same,% change,"[1]; Table 2, individual horses, pre vs post treatment",−60.5% and −69% and −8% and −84% and −82% and −16% and −5% and −27% and −233% and −50% and −1% and −10% and 18% and −57% and 1% and −15.8%
same,"Different, pre-post: % TRH resp","[1]; Table 5, individual horses",60% and 69% and 8% and 84% and 52% and 16% (2×) and 5% and 27% and 152% and 50% and 1% and 11% and −18% and 57% and 37%
same,"Different, pre-post: Base","[1]; Table 5, individual horses",-33 nmol/L and -105 nmol/L and 15 nmol/L and -118 nmol/L and -124 nmol/L and -23 nmol/L and 20 nmol/L and -8 nmol/L and 8 nmol/L and 29 nmol/L and 5 nmol/L and 2 nmol/L and 65 nmol/L and -18 nmol/L and 22 nmol/L and -95 nmol/L
same,"Different, pre-post: post Dex","[1]; Table 5, individual horses",−20 nmol/l and 12 nmol/l and 4 nmol/l and −10 nmol/l and 7 nmol/l (2×) and −16 nmol/l and −17 nmol/l and 107 nmol/l and 5 nmol/l and 15 nmol/l and −40 nmol/l and 23 nmol/l and 60 nmol/l and −67 nmol/l
same,"Different, pre-post: post TRH","[1]; Table 5, individual horses",53 nmol/L and -50 nmol/L and 32 nmol/L and 27 nmol/L and 49 nmol/L and 2 nmol/L and 31 nmol/L and 25 nmol/L and 66 nmol/L and 130 nmol/L and 10 nmol/L and 8 nmol/L and -19 nmol/L and 84 nmol/L and 71 nmol/L and -43 nmol/L
same,Cortisol post Trilostane Base,[1]; [9],160 nmol/L and 236 nmol/L and 116 nmol/L and 254 nmol/L and 149 nmol/L and 127 nmol/L and 112 nmol/L and 136 nmol/L and 65 nmol/L and 202 nmol/L and 81 nmol/L and 100 nmol/L and 209 nmol/L and 189 nmol/L and 121 nmol/L and 288 nmol/L
same,Cortisol post Trilostane post Dex,[1]; [9],170 nmol/l and 149 nmol/l and 118 nmol/l and 113 nmol/l (2×) and 82 nmol/l and 81 nmol/l (2×) and 163 nmol/l and 50 nmol/l and 101 nmol/l and 138 nmol/l and 47 nmol/l and 1 nmol/l and 153 nmol/l
same,Cortisol post Trilostane post TRH,[1]; [9],114 nmol/l and 316 nmol/l and 167 nmol/l and 193 nmol/l and 93 nmol/l and 79 nmol/l and 139 nmol/l and 158 nmol/l and 170 nmol/l and 88 nmol/l and 150 nmol/l and 117 nmol/l and 100 nmol/l (2×) and 138 nmol/l and 224 nmol/l
same,post Trilostane % TRH resp,[1]; [9],−29% and 34% and 44% and −24% and −38% (2×) and 24% and 16% and 162% and −56% and 85% and 17% and −52% and −27% and −17% and −22%
same,"Cortisol response to TRH / Dex pre vs post trilostane, in words","[1]; horses, single daily dose",lowering of the response to TRH; also recorded: decrease in cortisol response to TRH administration
same,"Different, pre-post: % TRH resp, group mean",[1]; mean of horses,39.2%
same,"Different, pre-post: Base, group mean",[1]; mean of horses,-22 nmol/L
same,"Different, pre-post: post Dex, group mean",[1]; mean of horses,5 nmol/L
same,"Different, pre-post: post TRH, group mean",[1]; mean of horses,30 nmol/L
same,"Cortisol post Trilostane post Dex, group mean","[1]; mean of horses, 22 hours post dexamethasone, after 30 days trilostane",104 nmol/L
same,"Cortisol post Trilostane Base, group mean",[1]; [10],159 nmol/L
same,"Cortisol post Trilostane post TRH, group mean",[1]; [10],147 nmol/L
same,"Change of serum cortisol concentrations pre vs post trilostane, in words","[2]; horses, once daily dose, 30 days",only a small drop in cortisol levels; also recorded: no apparent change in cortisol concentrations
same,"Mean Cortisol concentrations over 24 hrs, POST TREATMENT Mean","[2]; individual horses, mean of 6 samples at 4-hourly intervals, after 30 days of oral trilostane",108 and 203.7 and 157.3 and 263.3 and 143 and 193 and 122.8 and 134.4 and 112 and 152.3 and 113 and 194.7 and 94.8 and 112.3 and 183.3 and 245.5 and 158 and 164.5 and 160 and 149.8
same,"Serum cortisol, Post Trilosane Mean","[2]; individual horses, mean of 6 samples over 24 hours, once daily 0.4-1.0 mg/k for 30 days, listed as Trilosane",108 nmol/L and 203.7 nmol/L and 157.3 nmol/L and 263.3 nmol/L and 143 nmol/L and 193 nmol/L and 122.8 nmol/L and 134.4 nmol/L and 112 nmol/L and 152.3 nmol/L and 113 nmol/L and 194.7 nmol/L and 94.8 nmol/L and 112.3 nmol/L and 183.3 nmol/L and 245.5 nmol/L and 158 nmol/L and 164 nmol/L and 1 nmol/L and 149 nmol/L
same,"Serum cortisol, Difference, pre-post","[2]; individual horses, once daily 0.4-1.0 mg/k for 30 days, listed as Trilosane",-7.5 nmol/L and -61.2 nmol/L and -0.1 nmol/L and -6.8 nmol/L and 4 nmol/L and -38 nmol/L and -3 nmol/L and -17.1 nmol/L and 11 nmol/L and 10.4 nmol/L and 3.6 nmol/L and 34.6 nmol/L and -2.5 nmol/L and 2.4 nmol/L and -24.5 nmol/L and -80.5 nmol/L and -31.5 nmol/L and 5.5 nmol/L and 15.2 nmol/L and 3.4 nmol/L
same,"Serum cortisol, Difference, pre-post, group mean",[2]; [11],-9.1 ± 26.9 nmol/L
same,"Serum cortisol, Post Trilosane Mean, group mean",[2]; [11],158.3 nmol/L
same,"Mean time to euthanasia or death, dogs with PDH","[3]; 22 dogs, SD 195.1, range 27-730 days",230.9 days
same,"Mean time since commencing treatment, dogs with PDH alive","[3]; 32 dogs, SD 285.2, range 105 to 1120 days",417.3 days
same,Skin abnormalities,"[3]; all dogs with skin abnormalities, 2-3 months after starting",marked improvement with normal hair growth
same,Dogs in which polyuria/polydipsia and polyphagia dissipated within the first 10 days of treatment,"[3]; dog, in vivo",29 dogs
same,Dogs in which polyuria/polydipsia and polyphagia dissipated within the first month of treatment,"[3]; dog, in vivo",14 dogs
same,Dogs with clinical signs improved but always some clinical signs of HAC,"[3]; dog, in vivo",6 dogs
same,Dogs with PDH alive,[3]; of 54 dogs with PDH,32 dogs
same,"Median survival, dogs with adrenal tumour that died or were euthanised","[3]; six dogs, SD 174.9 days",260 days
same,"Serum cortisol lowering after daily dose, in words",[4]; dogs with Cushing's disease,reduced significantly at 4 hrs
same,"Canine serum cortisol, post","[4]; 4 hrs after dose, Trilostane 5–10 mg/k over 4–21 days",5 nmol/l (4×) and 62 nmol/l (2×) and 10 nmol/l and 60 nmol/l and 57 nmol/l and 63 nmol/l
same,"Canine serum cortisol, post",[4]; 8 hrs after dose,5 nmol/l (4×) and 48 nmol/l and 171 nmol/l and 51 nmol/l and 262 nmol/l and 183 nmol/l and 315 nmol/l
same,"Canine serum cortisol, post",[4]; 12 hrs after dose,5 nmol/l and 75 nmol/l and 83 nmol/l and 66 nmol/l (2×) and 158 nmol/l and 197 nmol/l and 143 nmol/l and 164 nmol/l and 318 nmol/l
same,"Canine serum cortisol, post",[4]; 19 hrs after dose,52 nmol/l and 101 nmol/l and 92 nmol/l and 63 nmol/l and 85 nmol/l and 183 nmol/l (3×) and 139 nmol/l and 230 nmol/l
same,"Canine serum cortisol, post",[4]; 20 hrs after dose,166 nmol/l and 105 nmol/l and 86 nmol/l and 97 nmol/l and 61 nmol/l and 154 nmol/l and 144 nmol/l (2×) and 108 nmol/l and 199 nmol/l
same,"Canine serum cortisol, post",[4]; 24 hrs after dose,117 nmol/L and 109 nmol/L and 51 nmol/L and 74 nmol/L and 66 nmol/L and 171 nmol/L and 144 nmol/L and 131 nmol/L and 154 nmol/L and 246 nmol/L
same,"Canine serum cortisol, post",[4]; 28 hrs after dose,147 nmol/L and 112 nmol/L and 75 nmol/L and 86 nmol/L and 53 nmol/L and 124 nmol/L and 190 nmol/L and 174 nmol/L and 246 nmol/L and 313 nmol/L
same,"Canine serum cortisol, post, Mean",[4]; 4 hrs,33 nmol/L
same,"Canine serum cortisol, post, Mean",[4]; 8 hrs,105 nmol/L
same,"Canine serum cortisol, post, Mean",[4]; 12 hrs,130 nmol/L
same,"Canine serum cortisol, post, Mean",[4]; 19 hrs,131 nmol/L
same,"Canine serum cortisol, post, Mean",[4]; 20 hrs,126 nmol/L
same,"Canine serum cortisol, post, Mean",[4]; 24 hrs,126 nmol/L
same,"Canine serum cortisol, post, Mean",[4]; 28 hrs,152 nmol/L
same,Elimination of trilostane,[5]; after single daily dose,rapid elimination
same,Time of peak serum concentration of trilostane,"[5]; after single daily dose (FIG. 1, one 60 mg capsule per day, 6 dogs)",1 to 3 h
same,Biochemistry abnormalities during the course of therapy,[6]; all without clinical consequence,"one episode of hyperkalaemia, two episodes of azotaemia, three episodes of hyperbilirubinaemia and two episodes of hypercalcaemia"
same,Acute deaths,"[6]; dog, in vivo",Three dogs died acutely at home
same,Tolerability,[6]; starting dose 1.8 to 20 mg/kg,generally well tolerated
same,Hyperkalaemia and hyponatraemia,"[6]; trilostane stopped, both dogs euthanised",two dogs showed hyperkalaemia and hyponatraemia prior to clinical deterioration
same,ACTH stimulation test leading to stop of the drug,"[6]; two cross bred dogs started on 6.5 and 7.5 mg/kg, after two and three months",both showed a flat-lined ACTH stimulation test
same,Response rate,[7],29% and 38%
